Reference: patent US20240285808A1, “MOLECULAR PROBES FOR IN VIVO DETECTION OF ALDEHYDES” (The General Hospital Corporation, priority 2021, published 2024)
“And” between values parts separate entries of the source, which are not always exact repeats. Identical values can stand only once.

Tests used:
[1] = test system: lungs of bleomycin-injured mice; assay: MR imaging of lung in bleomycin lung fibrosis model; assay type: in vivo, mouse; settings: for ΔLMR in lungs, pair-wise comparison: 60 min post injection, individual mice ID 1-6
Protocol: C57Bl/6 adult male mice at 8 weeks of age (Jackson Laboratories, Barr Harbor, ME) received a single intratracheal dose of bleomycin, 1 units/kg body weight (50 μL total volume) (Fresenius Kabi, Lake Zurich, Il) as previously described in Desogere, P., et al. Optimization of a Collagen-Targeted PET Probe for Molecular Imaging of Pulmonary Fibrosis. J Nuc Med 58, 1991-1996 (2017).
Pair-Wise Comparison Between Gd-CHyd and Gd-9 in Lung Fibrosis Model:
A series of baseline images were first acquired. […] Then anesthesia was removed, and the mouse was allowed to awake and return to cage. After 4 hours, the same mouse was anesthetized again.
Pair-wise comparison between Mn-15 and Mn-17 in lung fibrosis model: The bleomycin-injured mice were first randomly imaged with Mn-15 or Mn-17 and then 24 hours later same imaging protocol was performed in the same mice with the other probe.
Animals were anesthetized with isoflurane (1-2%) and placed in a specially designed cradle with body temperature maintained at 37° C. The inhaled isoflurane level was adjusted to maintain a respiration rate of 60±5 breaths per minute. The tail vein was cannulated for intravenous (i.v.) delivery of the contrast agent while the animal was positioned in the scanner. Imaging was performed at 4.7 T using a small bore animal scanner with a custom-built volume coil. Mice were imaged with a dose of 100 μmol/kg from 30 mM stock solution of Gd or Mn complex.
For lung imaging, images were acquired with following sequences and parameters: 3D Ultrashort TE (3D-UTE, TR/TE/FA=4 ms/11.75 μs/16°, 0.6 mm isotropic spatial resolution, field of view (FOV) 75 mm×75 mm, one average, acquisition time=6.1 min) images were acquired prior to and dynamically post injection of contrast agent; Rapid Acquisition with Relaxation Enhancement (RARE, TR/TE/FA=1.5 s/8 ms/180°, 0.3 mm isotropic spatial resolution, field of view (FOV) 60 mm×50 mm, four average, acquisition time=6.1 min) and T1-weighted 3D Fast Low Angle Shot (FLASH, TR/TE/FA=10 ms/2.5 ms/30°, 0.6 mm isotropic spatial resolution, field of view (FOV) 60 mm×50 mm, one average, acquisition time=6.1 min) images were also acquired.
A total of 6 lung ROIs were defined on axial UTE images to obtain signal intensity (SI); ROIs in the dorsal muscle in each slice were also defined as reference; ROIs in the field of view without any tissue (air) were used to measure the variation in background signal. Then the lung-to muscle ratio (LMR) or contrast to noise ratio (CNR) was averaged from the 6 slices to calculate changes in LMR (ΔLMR) or CNR (ΔCNR) at each time point.
Gd-9 is a Gd-DOTA derivative with two hydrazine arms synthesized by amide coupling of two tBu-piperazin-1-ylcarbamate groups to 1,4,7,10-tetraazacyclododecane-1,4-bis(tBu-acetate)-4,10-bis(glutaric acid 1-tBu ester), followed by acid deprotection and gadolinium complexation. C57Bl/6 adult male mice at 8 weeks of age received a single intratracheal dose of bleomycin, 1 U/kg body weight (50 μL total volume) as previously described. Pair-wise imaging study of GdCHyd and Gd-9 was carried out in mice at day 14 post bleomycin injury on a 4.7 T MRI with a dose of 100 μmol/kg of each probe. For the treatment study, mice were imaged first at day 10 post bleomycin injury, then treated daily with oral gavage of either epigallocatechin gallate (EGCG, 100 mg/kg) or PBS (vehicle) for 11 days. At day 21 post bleomycin injury, the animals were imaged again. MRI consisted of T1-weighted UTE (TR/TE/flip angle=4 ms/0.011 ms/15°) images acquired prior to and up to 30 minutes following intravenous administration of Gd-9 ([…]). Following the second imaging session, animals were euthanized (60 minutes post injection), and lung tissues were removed for further analysis.

[2] = Reaction rates with butyraldehyde by UV-visible measurements (Method D); assay type: physicochemical; settings: for k (second order / condensation rate constant): Method d: butyraldehyde 1 mM, Mn complex 0.04-0.10 mM, 25° C., PBS, absorbance 220 nm
Protocol: Method D: Reaction Rates with UV-Visible Measurements.
The molar extinction coefficient at 220 nm (ε220) of Mn-15, Mn-16 and Mn-17 was calculated using Beer-Lambert Law: A220=ε220Cl; where A220 is the absorbance at wavelength 220 nm, C is the concentration (M), and l is the cell path length (cm).
The kinetics for reactions of Mn-15, Mn-16 and Mn-17 with butyraldehyde were monitored spectrophotometrically by measuring the change in absorbance at 220 nm. All reactions were carried out at 25° C. in PBS. In each experiment [butyraldehyde]=1 mM and the concentrations of Mn-complex, 0.04 mM, 0.06 mM, 0.08 mM, and 0.10 mM, were varied to estimate the rate law.
At the beginning of the reaction (t=0), the concentration of the starting Mn complex is a0 and the concentration of the aldehyde condensation product is zero. After time t the concentration of the product is x, and the concentration of remaining Mn complex starting material is a0-x. For a first-order reaction
where I is the constant of integration and kobs is the observed rate constant. The rate law and a corresponding second order rate constant k were estimated by plotting reaction velocity as a function of Mn—N(where Mn—N refers to Mn-15, Mn-16, or Mn-17) concentration.
The concentration of Mn—N-Ald (where Mn-Ald refers to the reaction product with either Mn-15, Mn-16, or Mn-17) can be estimated by the following equations, where A0 is the absorbance of Mn—N and A is the absorbance of reaction mixture after time t,
The novel Mn-PC2A derivatives (FIG. 1A) were synthesized in 6 steps from the pyclen macrocycle. Hydrazone formation kinetics with butyraldehyde as a model compound were measured by UV spectroscopy at 220 nm, 25° C., pH 7.4, PBS. Hydrazone hydrolysis kinetics were measured by HPLC with UV detection at 220 nm using excess formaldehyde to trap the liberated hydrazine and prevent the reverse reaction. Allysine-modified BSA (BSA-Ald, 17.4 mg/mL, […] aldehyde) as a soluble model protein or BSA (17.3 mg/mL, 16.8 μM aldehyde) and Mn-15 or Mn-17 (50-200 μM) were incubated at 37° C. for 3 hours, and 1/T1 was measured at 1.4 T, 37° C., and plotted vs concentration to obtain relaxivity. The protein bound probe was isolated by ultrafiltration and the relaxivity of the protein-bound fraction measured. All Mn concentrations were measured by ICP-MS. Liver fibrosis was induced in male C57BL/6 mice by oral gavage with CCl4 for 12 weeks, 2-3 times per week, while control mice received vehicle (olive oil). 3D FLASH images (TR/TE/FA=15 ms/2 ms/30°, 0.25 mm^3 spatial resolution) were acquired on a 4.7 T Bruker Biospec prior to and dynamically for 40 min p.i. of 100 μmol/kg Mn-15. Liver to muscle contrast to noise was calculated as CNR=(SILiver−SIMuscle)/SDAir where SI=signal intensity and SD=standard deviation in SI.

[3] = bleomycin injured mice (fibrotic lung)

SMILES | fold higher signal in fibrotic lung than GdCHyd ([1]; bleomycin day 14, pairwise study, same time point post injection) | ΔCNR of lung, pair-wise comparison ([1]; bleomycin injured mice, 25 min post injection, individual mice ID 1-4) | fold higher condensation (hydrazone formation) rate constant compared to Mn-17 [2] | k (second order / condensation rate constant) [2] | ΔLMR in lungs, pair-wise comparison [1] | Change in lung to muscle ratio (ΔLMR) ([1]; Bleomycin injured mice) | Change in lung to muscle ratio (ΔLMR) ([1]; Naïve mice) | Washout T1/2 in lungs ([1]; Naïve mice (normal lung)) | Washout T1/2 in lungs [1, 3]
NN1CCN(C(=O)CCC(C(=O)[O-])N2CCN(CC(=O)[O-])CCN(CC(=O)[O-])CCN(C(CCC(=O)N3CCN(N)CC3)C(=O)[O-])CC2)CC1.[Gd+3] (stereo not drawn) [Gd-9, cis-1,4-Gd-(CHyd)2] | 3 fold | 3.7 and 4.3 and 3.0 and 4.0 |  |  |  |  |  |  | 
NNC(CCC(=O)NCCCN1CCN(CC(=O)[O-])Cc2cccc(n2)CN(CC(=O)[O-])CC1)C(=O)O.[Mn+2] (stereo not drawn) [Mn-15] |  |  | 3 fold | 12.1 M⁻¹ s⁻¹ | 0.06 and 0.11 and 0.18 (2×) and 0.08 and 0.15 | 0.13 | 0.00 | 13.7 ± 1.4 min | 33.5 ± 5.1 min and 33.6 ± 5.1 min
NOC(CCC(=O)NCCCN1CCN(CC(=O)[O-])Cc2cccc(n2)CN(CC(=O)[O-])CC1)C(=O)O.[Mn+2] (stereo not drawn) [Mn-16] |  |  |  | 2.5 M⁻¹ s⁻¹ |  | 0.18 | 0.00 | 17.9 ± 3.2 min | >240 min
NNCC(=O)NCCCN1CCN(CC(=O)[O-])Cc2cccc(n2)CN(CC(=O)[O-])CC1.[Mn+2] [Mn-17] |  |  |  | 4.6 M⁻¹ s⁻¹ | 0.09 and 0.18 (2×) and 0.27 and 0.15 (2×) | 0.15 | 0.00 | 15.1 ± 1.9 min | 41.5 ± 6.3 min
CN(C)C(CCC(=O)NCCCN1CCN(CC(=O)[O-])Cc2cccc(n2)CN(CC(=O)[O-])CC1)C(=O)O.[Mn+2] (stereo not drawn) [Mn-18] |  |  |  |  |  | 0.04 | 0.01 | 15.7 ± 1.8 min | 18.9 ± 2.0 min
